In patent US8470770B2, “Antimicrobial agents” (priority 2007, dated 2013):
Converted amounts (≈) assume the structure as drawn. Bridge positions count the residues as written; N and C are the ends. Square brackets hold non-standard residues; d marks the D form. Ends that are not written are not given here. Peptide text beside a SMILES is read from it. 12Ado = NCCCCCCCCCCCC(=O)O

Assays:
[1] = test system: Escherichia coli (ATCC 35218); test: microbe, parasite or virus in culture; details: for MIC E.c.: ATCC 35218
Method: (§1) Minimal inhibitory concentrations (MICs) were determined by microdilution susceptibility testing in 96-well plates using inocula of 10^6 bacteria per ml.
(§2) Cell populations were evaluated by optical density measurements at 600 nm and were calibrated against a set of standards. Hundred (100) μl of a bacterial suspension were added to 100 μl of culture medium (control) or to 100 μl of culture medium containing various polymer concentrations in 2-fold serial dilutions.
(§3) Alternatively, MICs were determined using the microbroth dilution assay recommended by the Clinical and Laboratory Standards Institute (CLSI) using two-fold serial dilutions in cation-adjusted Mueller-Hinton broth (CAMHB).
“MIC E.c.” represents the minimal inhibitory concentration of each tested polymer in μM for E. coli, measured as described hereinabove in the antibacterial activity assay (column 5 in Table 3);

[2] = test system: Pseudomonas aeruginosa (ATCC 9027); test: microbe, parasite or virus in culture; details: for MIC P.a.: ATCC 9027
Method: as §1, §2, §3
“MIC P.a.” represents the minimal inhibitory concentration of each tested polymer in μM for P. aeruginosa, measured as described hereinabove for the antibacterial activity assay (column 7 in Table 3);

[3] = test system: methicillin resistant Staphylococcus aureus (CI 15903); test: microbe, parasite or virus in culture; details: for MIC MR S.a.: methicillin resistant (CI 15903); for MIC: Staphylococcus aureus, read-out: MIC MR S.a.
Method: as §1, §2, §3
“MIC MR S.a.” represents the minimal inhibitory concentration of each tested polymer in μM for methicillin-resistant S. aureus, measured as described hereinabove for the antibacterial activity assay of antibiotic-resistant bacteria (column 8 in Table 3);

[4] = test system: Enterococcus faecalis (ATCC 29212); test: microbe, parasite or virus in culture; type: cell-based
[5] = Hydrophobicity estimation by HPLC reversed-phase C18 elution; type: physicochemical; details: HPLC-RP C18, linear acetonitrile gradient 1% per minute
Method: HPLC chromatograms were performed on C18 columns (Vydak, 250 mm×4.6 or 10 mm) using a linear gradient of acetonitrile in water (1% per minute), both solvents contained 0.1% trifluoroacetic acid. The purified polymers were subjected to mass spectrometry (ZQ Waters) to confirm their composition and stored as a lyophilized powder at −20° C. Prior to being tested, fresh solutions were prepared in water, mixed by vortex, solubilized by ultrasound, centrifuged and then diluted in the appropriate medium.
In order to estimate the hydrophobicity of each polymer, the polymer was eluted with a linear gradient of acetonitrile (1% per minute) on an HPLC reversed-phase C18 column, and the percent of acetonitrile at which the polymer was eluted was used for hydrophobicity estimation (see, “ACN (%)” in Table 3 below).
“ACN (%)” represents the percent of acetonitrile in the HPLC-RP gradient mobile phase at which the polymer was eluted and which corresponds to the estimated hydrophobicity of the polymer (column 4 in Table 3);

[6] = test system: Bacillus cereus (ATCC 11778)
Method: as §1, §2, §3
“MIC B.c.” represents the minimal inhibitory concentration of each tested polymer in μM for Bacillus cereus, measured as described hereinabove for the antibacterial activity assay (column 9 in Table 3); and […]

Compound | MIC E.c. [1] [µM] | MIC P.a. [2] [µM] | MIC MR S.a. [3] [µM] | MIC ([4]; ATCC 29212) [µM] | ACN (%) (percent of acetonitrile at which the polymer was eluted; estimated hydrophobicity) [5] | other results
NCCCC[C@@H]1NC(=O)CCCCCCCCCCCNC(=O)[C@H](CCCCN)NC(=O)CCCCCCCCCCCNC(=O)[C@H](CCCCN)NC(=O)CCCCCCCCCCCNC(=O)[C@H](CCCCN)NC(=O)[C@H](CCCCN)NC(=O)CCCCCCCCCCCNC(=O)[C@H](CCCCN)NC(=O)CCCCCCCCCCCNC1=O [Polymer 2, Cyclic-K(NC12K)5] (cyclo(K[12Ado]K[12Ado]K[12Ado]K[12Ado]K[12Ado]K)) | 12.5 (≈ 21.9 µg/mL) | 12.5 (≈ 21.9 µg/mL) | 6.25 (≈ 11 µg/mL) | 6.25 (≈ 11 µg/mL) | 46.6 | 
NCCCCC1NC(=O)CCCCCCCCCCCNC(=O)C(CCCCN)NC(=O)CCCCCCCCCCCNC1=O (stereo not shown) [Polymer 3, Cyclic-(NC12K)2] |  | >50 |  | >50 | 49.7 | 
NCCCCC1NC(=O)CCCCCCCCCCCNC(=O)C(CCCCN)NC(=O)CCCCCCCCCCCNC(=O)C(CCCCN)NC(=O)CCCCCCCCCCCNC1=O (stereo not shown) [Polymer 4, Cyclic-(NC12K)3] | >50 | >50 | 12.5 (≈ 12.2 µg/mL) |  | 47.0 | MIC B.c [6]: >50 µM
NCCCCC1NC(=O)CCCCCCCCCCCNC(=O)C(CCCCN)NC(=O)CCCCCCCCCCCNC(=O)C(CCCCN)NC(=O)CCCCCCCCCCCNC(=O)C(CCCCN)NC(=O)CCCCCCCCCCCNC1=O (stereo not shown) [Polymer 5, Cyclic-(NC12K)4] | >50 | >50 | >50 |  | 47.4 | MIC B.c [6]: >50 µM
NCCCCC1NC(=O)CCCCCCCCCCCNC(=O)C(CCCCN)NC(=O)CCCCCCCCCCCNC(=O)C(CCCCN)NC(=O)CCCCCCCCCCCNC(=O)C(CCCCN)NC(=O)CCCCCCCCCCCNC(=O)C(CCCCN)NC(=O)CCCCCCCCCCCNC1=O (stereo not shown) [Polymer 6, Cyclic-(NC12K)5] |  | 50 (≈ 81.4 µg/mL) |  |  | 47.7 | MIC B.c [6]: >50 µM
NCCCCC1NC(=O)CCCCCCCCCCCNC(=O)C(CCCCN)NC(=O)C(CCCCN)NC(=O)CCCCCCCCCCCNC(=O)C(CCCCN)NC1=O (stereo not shown) [Polymer 7, Cyclic-(KNC12K)2] (cyclo([12Ado]KK[12Ado]KK); configuration not given here) |  | 25 (≈ 22.7 µg/mL) |  | 50 (≈ 45.4 µg/mL) | 40.7 | 
NCCCC[C@@H]1NC(=O)CCCCCCCCCCCNC(=O)[C@H](CCCCN)NC(=O)[C@H](CCCCN)NC(=O)CCCCCCCCCCCNC(=O)[C@H](CCCCN)NC(=O)[C@H](CCCCN)NC(=O)CCCCCCCCCCCNC(=O)[C@H](CCCCN)NC1=O [Polymer 8, Cyclic-(KNC12K)3] (cyclo(K[12Ado]KK[12Ado]KK[12Ado]K)) | 25 (≈ 34 µg/mL) | 12.5 (≈ 17 µg/mL) | 25 (≈ 34 µg/mL) | 25 (≈ 34 µg/mL) | 41.7 | 
NCCCCC1NC(=O)CCCCCCCCCCCNC(=O)C(CCCCN)NC(=O)C(CCCCN)NC(=O)CCCCCCCCCCCNC1=O (stereo not shown) [Polymer 9, Cyclic-NC12KKNC12K] (cyclo([12Ado]K[12Ado]KK); configuration not given here) |  | 50 (≈ 39 µg/mL) |  | 25 (≈ 19.5 µg/mL) | 42.7 | 
NCCCC[C@@H]1NC(=O)CCCCCCCCCCCNC(=O)[C@H](CCCCN)NC(=O)[C@H](CCCCN)NC(=O)CCCCCCCCCCCNC(=O)[C@H](CCCCN)NC(=O)[C@H](CCCCN)NC(=O)CCCCCCCCCCCNC1=O [Polymer 10, Cyclic-NC12K(KNC12K)2] (cyclo([12Ado]KK[12Ado]KK[12Ado]K)) | 12.5 (≈ 15.4 µg/mL) | 12.5 (≈ 15.4 µg/mL) | 12.5 (≈ 15.4 µg/mL) | 6.25 (≈ 7.71 µg/mL) | 43.1 | 
NCCCC[C@@H]1NC(=O)CCCCCCCCCCCNC(=O)[C@H](CCCCN)NC(=O)[C@H](CCCCN)NC(=O)[C@H](CCCCN)NC(=O)CCCCCCCCCCCNC(=O)[C@H](CCCCN)NC1=O [Polymer 11, Cyclic-KNC12KKKNC12K] (cyclo(K[12Ado]KKK[12Ado]K)) | >50 | 12.5 (≈ 12.9 µg/mL) | >50 | >50 | 38 | 
NCCCC[C@@H]1NC(=O)CCCCCCCCCCCNC(=O)[C@H](CCCCN)NC(=O)[C@H](CCCCN)NC(=O)[C@H](CCCCN)NC(=O)CCCCCCCCCCCNC(=O)[C@H](CCCCN)NC(=O)[C@H](CCCCN)NC1=O [Polymer 12, Cyclic-KNC12KKKNC12KK] (cyclo(K[12Ado]KKK[12Ado]KK)) | >50 | >50 | >50 | >50 | 35 | 
CCCCCCCCCCCC(=O)NCCCCC(N)C(=O)NCCCCCCCCCCCC(=O)NCCCCC(N)C(N)=O (stereo not shown) [Polymer 13, C12K(ε)NC12K(ε)NH2] | 12.5 (≈ 8.16 µg/mL) | >50 | 12.5 (≈ 8.16 µg/mL) | 12.5 (≈ 8.16 µg/mL) | 54.4 | 
CC(C)C[C@H](NC(=O)CNC(=O)CNC(=O)[C@@H](N)CCCNC(=N)N)C(=O)N[C@H]1CSSC[C@@H](C(=O)N[C@H](C(=O)NCC(=O)N[C@@H](CCCNC(=N)N)C(N)=O)C(C)C)NC(=O)[C@H](C(C)C)NC(=O)[C@@H]2CSSC[C@H](NC(=O)[C@H](Cc3ccc(O)cc3)NC1=O)C(=O)N[C@@H](CCCNC(=N)N)C(=O)NCC(=O)N[C@@H](CCCNC(=N)N)C(=O)N[C@@H](Cc1ccccc1)C(=O)N2 [Ref. 2, IB-367, reference compound] (H-RGGLCYCRGRFCVCVGR-NH2; disulfide 5-14, 7-12) |  |  |  |  | 45 | 
CC[C@H](C)[C@H](NC(=O)[C@H](CCCCN)NC(=O)[C@H](CCC(=O)O)NC(=O)[C@H](CCCCN)NC(=O)[C@H](CO)NC(=O)[C@H](CCCCN)NC(=O)[C@H](CCCNC(=N)N)NC(=O)[C@H](Cc1ccccc1)NC(=O)[C@H](Cc1ccccc1)NC(=O)[C@H](CC(=O)O)NC(=O)CNC(=O)[C@H](CC(C)C)NC(=O)[C@@H](N)CC(C)C)C(=O)NCC(=O)N[C@@H](CCCCN)C(=O)N[C@@H](CCC(=O)O)C(=O)N[C@@H](Cc1ccccc1)C(=O)N[C@@H](CCCCN)C(=O)N[C@@H](CCCNC(=N)N)C(=O)N[C@H](C(=O)N[C@H](C(=O)N[C@@H](CCC(N)=O)C(=O)N[C@@H](CCCNC(=N)N)C(=O)N[C@H](C(=O)N[C@@H](CCCCN)C(=O)N[C@@H](CC(=O)O)C(=O)N[C@@H](Cc1ccccc1)C(=O)N[C@@H](CC(C)C)C(=O)N[C@@H](CCCNC(=N)N)C(=O)N[C@@H](CC(N)=O)C(=O)N[C@@H](CC(C)C)C(=O)N[C@H](C(=O)N1CCC[C@H]1C(=O)N[C@@H](CCCNC(=N)N)C(=O)N[C@H](C(=O)N[C@@H](CCC(=O)O)C(=O)N[C@@H](CO)C(=O)O)[C@@H](C)O)C(C)C)[C@@H](C)CC)C(C)C)[C@@H](C)CC [Ref. 4, LL37, reference compound] |  |  |  |  | 61 | MIC ([4]; Enterococcus faecalis): 37.5 µM (≈ 169 µg/mL)
C[C@@H](O)[C@H]1C(=O)N2C(C(=O)O)=C(SCCN=CN)C[C@H]12 [Ref. 6, Imipenem, reference compound] |  |  |  |  |  | MIC [3]: > 50 µM; MIC ([4]; Enterococcus faecalis, ATCC29212): < 0.03 µM
CN(C)[C@@H]1C(O)=C(C(N)=O)C(=O)[C@@]2(O)C(O)=C3C(=O)c4c(O)cccc4[C@@](C)(O)[C@H]3C[C@@H]12 [Ref. 7, Tetracycline, reference compound] |  |  |  |  |  | MIC ([1]; Escherichia coli, ATCC35218, read-out: MIC E.c.): 1.8 µM (≈ 0.8 µg/mL); MIC ([2]; Pseudomonas aeruginosa, ATCC9027, read-out: MIC P.a.): > 50 µM; MIC [3]: 0.4 µM (≈ 0.178 µg/mL)
ALWKTLLKKVLKAAAK-NH2 (C-terminus assumed) [Ref. 3, K4S4(1-16), reference compound] |  |  |  | 3.1 | 47 | 
GIGKFLKKAKKFGKAFVKILKK-NH2 (C-terminus assumed) [Ref. 1, MSI-78, reference compound] |  |  |  | 37.5 | 44 | 
